Experimental data reported in patent US11110168B2, “Nanoparticles, controlled-release dosage forms, and methods for delivering an immunotherapeutic agent” (NORTH CAROLINA STATE UNIVERSITY, priority 2016, dated 2021).

Tests used:
restriction enzyme HhaI = test: Digestion of DNCs by restriction enzyme HhaI, gel electrophoresis; format: biochemical; conditions: treated with HhaI
Description: Release studies were performed at 37° C. with constant agitation in PBS+10% fetal ovine serum. PBS, MMP-9 (500 ng/mL, Sigma) or Lipase (10 000 U, Sigma) were added to samples to study the DNA and antibody release. The DNA disintegration was analyzed by agarose gel electrophoresis using 1% (w/v) agarose gel and the antibody release was determined by IgG total ELISA kit (eBioscience).
Two different control DNCs (cDNC) with a non-specific sequence were synthesized (Table 1) to verify the design.
As shown in agarose gels (FIG. 7), without HhaI treatment, these cDNCs cannot migrate in the gel as DNCs.

[1] = In vivo retention and biodistribution after MN administration in mice bearing B16F10 melanoma; set-up: species or system mouse; conditions: for Cy5.5 signal around the melanoma site (retention): MN administration, imaging day 1, day 3, day 5
Description: HA-NPs formulation with conjugated 1-MT and encapsulated aPD1 can improve their physicochemical properties. Therefore, the in vivo kinetics of free aPD1/1-MT and NPs following MN administration were evaluated in the mice model bearing B16F10 melanoma. The drug retention capability was tested at the tumor site after the MN administration. In vivo […] imaging was conducted at day 1, day 3 and day 5 post injection of the MN loaded with aPD1 and Cy5.5-1-MT-HA or free Cy5.5-1-MT. […] A similar pattern was observed compared to the biodistribution at the tumor site and other organs in the control group. […] The sustained high concentrations of the drugs within tumor regions as well as in peripheral circulation would enhance the immune system capability to treat not only primary tumor but also metastatic tumors in the body.
For the fluorescent NPs, Cyanine5.5 NHS ester (Lumiprobe, Cy5.5) was covalently coupled to the primary amines of the aPD1 and 1-MT. The Cy5.5 was dissolved in anhydrous DMSO immediately before use, at a concentration of 10 mg/ml. Cy5.5 and 1-MT reacted at optimal ratio of 5:1. For the conjugation with aPD1, 40 μg Cy5.5 per mg of antibody was mixed immediately. The tube was wrapped in foil and incubated at room temperature for 1 hour. The unreacted Cy5.5 was removed and the aPD1 was exchanged by gel filtration using Sephadex G-25M.

| Molecule | cleavage by HhaI (gel electrophoresis) (restriction enzyme HhaI) | biodistribution in the tumor and the major organs ([1]; Cy5.5-labeled 1-MT after MN administration) | Cy5.5 signal around the melanoma site (retention) [1] |
| --- | --- | --- | --- |
| cDNC (with cutting sites, without CpG): control DNA nano-cocoon with HhaI cutting sites, without CpG (GTATTATTTCGAAATAATTTGTATTATT; 5' phosphate, chemistry not fully specified; the letters are possibly those of the target site) | readily cut into smaller homogeneous fragments |  |  |
| Cn1cc(CC(N)C(=O)O)c2ccccc21 (racemic) [1-MT, 1-methyl-DL-tryptophan] |  | highest accumulations in the tumor followed by the lung and liver | quickly cleaved from the patch and eliminated by the body within one day |
| 1-methyl-DL-tryptophan [1-MT] |  |  | little signal could be detected |
| cDNCs (with CpG, without cutting sites): control DNA nano-cocoon with CpG, without HhaI cutting sites (nucleic acid, listed as DNA, chemistry not fully specified; the letters are possibly those of the target site) ATATGTCGTCGTTCGAACGACGTTATATAACGTCGTTCGAACGACGTTATATGTCGTCGTTCGAACGACGTT | resistant to cleavage by HhaI |  |  |
